In US20170000749A1, “Methods for Treating Cognitive Disorders Using Inhibitors of Histone Deacetylase” (Forum Pharmaceuticals, Inc., priority 2008, published 2017) one finds IC50 data, which are given here for 14 compounds.

The target of assay [1] is one or more of HDAC-1, HDAC-2, HDAC-3, HDAC-4, HDAC-5, HDAC-6, HDAC-7, HDAC-8, HDAC-9, HDAC-10 and HDAC-11. Briefly: Inhibition of Histone Deacetylase Enzymatic Activity (Boc-Lys(Ac)-AMC substrate, Fluor-de-Lys developer). It is filed as biochemical. The settings on record: read-out: HDAC Inhibition (IC50 μM) HDAC Enzyme. The protocol:
The following protocol is used to assay the compounds of the disclosure.
The mixture is pre-incubated for 5 minutes at room temperature. The reaction is started by bringing the temperature to 37° C. and adding 16 μl substrate. Total reaction volume is 50 μl.
In the Tables 8, 9 and 10, A≦0.05 μM; 0.05 μM<B≦0.1 μM; 0.1 μM<C≦1 μM; and 1 μM<D≦10 μM.

Assay [2] deals with HDAC activity in primary mouse cortical cultures. Briefly: Whole-Cell Histone Deacetylase (HDAC) Inhibition Assay in Primary Mouse Cortical Cultures. It is filed as cell-based. The settings on record: whole-cell (WC), mouse cortical neurons, read-out: HDAC Inhibition (IC50 μM) WC mouse cortical neurons. The protocol:
Primary neocortical cultures are established through the dissection of the neocortex from E17 embryos harvested from time-pregnant Balb/C mice. Following dissection, the neocortical tissue specimens undergo digestion by incubation at 37° C. for 10 minutes in dissection medium (1×HBSS/10 mM HEPES/1 mM Sodium Pyruvate) supplemented with (0.25%) Trypsin and (0.1%) DNase I. Digested tissue is washed and resuspended in plating medium (NeuroBasal/10% HS/0.5 mM L-Glutamine (Invitrogen Corporation)) for trituration. Additional plating medium is added, and the contents are passed over a 70 um cell-strainer. The cell-density is quantified using a hemacytometer, and dilutions are made to allow for the plating of 50000 cells/well/100 uL in 96-well PDL-coated plates. Plates are incubated for 4-5 hours in 37° C./5% CO2-incubator, after which time the entire volume is exchanged to feeding medium (NeuroBasal/2% B-27 Serum-free supplement/0.5 mM L-Glutamine/1% Penicillin-Streptomycin (Invitrogen Corporation)). The cultures undergo two 50% fresh feeding medium exchanges at 3 days in vitro (DIV3), and again at DIV7.
Compounds for testing are resuspended in dimethyl sulphoxide (DMSO), and further diluted in DMSO for a ten-point dose-response curve, with appropriate controls. Each master plate is assayed in triplicate. […] Three DIV9 culture plates are leveled to 50 uL/well, onto which each has overlaid 50 uL/well of the diluted daughter plate. The plates are returned to the 37° C./5% CO2-incubator for 16-18 hours.
The next step of the assay involves the exposure of a HDAC colorimetric substrate, comprising an acetylated lysine side chain, to the compound-treated neuronal cultures. Based on the ability of the compound to inhibit HDAC activity in the neuronal cultures, the substrate is deacetylated by HDACs, and subsequently sensitized. […] Compound-incubated culture plates are again leveled to 50 uL/well and 2 uL/well of 7.5 mM BOC-Lys (Ac)-AMC substrate is added and thoroughly mixed. Plates are returned to the 37° C./5% CO2-incubator for 1 hour.
The final addition to the culture plates entails treatment with a Fluor de Lys™-based developer (BIOMOL Research Laboratories, Inc.) to produce a fluorophore, which is analyzed using a spectrophotometer. The developer solution (1×Fluor de Lys™/1% NP-40/1 uM TSA in HDAC Buffer Solution) is prepared, and 50 uL/well is added to each of the wells of the culture plates. […] The plates are returned to the 37° C./5% CO2-incubator for 10-15 minutes, after which time, they are removed and set in the dark at room temperature for 5-10 minutes.
Primary neocortical cultures were established through the dissection of the neocortex from E17 embryos harvested from time-pregnant Balb/C mice. Following dissection, the neocortical tissue specimens underwent digestion by incubation at 37° C. for 10 minutes in dissection medium (1×HBSS/10 mM HEPES/1 mM Sodium Pyruvate) supplemented with (0.25%) Trypsin and (0.1%) DNase I. Digested tissue was washed and resuspended in plating medium (NeuroBasal/10% HS/0.5 mM L-Glutamine (Invitrogen Corporation)) for trituration. Additional plating medium was added, and the contents passed over a 70 um cell-strainer. The cell-density was quantified using a hemacytometer, and dilutions made to allow for the plating of 50000 cells/well/100 uL in 96-well PDL-coated plates. Plates were incubated for 4-5 hours in 37° C./5% CO2-incubator, after which time the entire volume was exchanged to feeding medium (NeuroBasal/2% B-27 Serum-free supplement/0.5 mM L-Glutamine/l % Penicillin-Streptomycin (Invitrogen Corporation)). The cultures underwent two 50% fresh feeding medium exchanges at 3 days in vitro (DIV3), and again at DIV7.
Compounds for testing were resuspended in dimethyl sulphoxide (DMSO), and further diluted in DMSO for a ten-point dose-response curve, with appropriate controls. Each master plate was assayed in triplicate.

Each structure is given as a SMILES string. Like-named read-outs stand apart in the source and are kept apart here.

As a reminder, the IC50 is the point on the concentration scale where inhibition reaches its midpoint. On to `O=C(CCCCCCC(=O)N1c2ccccc2C=Cc2ccccc21)NO` [(Z)-8-(5H-dibenzo[b,f]azepin-5-yl)-N-hydroxy-8-oxooctanamide], for which the figures for the IC50 in assay [1] (Table 10) and in assay [2] (Table 10) were 0.1 to 1 µM and 5 to 15 µM, respectively.
Turning to `O=C(NO)c1cnc(N2C[C@@H]3C[C@H]2CN3c2cccc(F)c2)nc1` [2-((1S,4S)-5-(3-fluorophenyl)-2,5-diazabicyclo[2.2.1]heptan-2-yl)-N-hydroxypyrimidine-5-carboxamide], the IC50 in assay [1] (Table 9) was less than 0.05 µM; in assay [2] (Table 9), less than 1 µM.
Regarding `O=C(NO)c1cnc(N2C[C@@H]3C[C@H]2CN3C(=O)OCC2CC2)nc1` [(1S,4S)-cyclopropylmethyl 5-(5-(hydroxycarbamoyl)pyrimidin-2-yl)-2,5-diazabicyclo[2.2.1]heptane-2-carboxylate], the IC50 in assay [1] (Table 9) is less than 0.05 µM; in assay [2] (Table 9) it was less than 1 µM.
As for `O=C(NO)c1ccc(C2=Nc3ccccc3[S+]([O-])c3ccccc32)cc1` (stereo not shown), the IC50 was in the range of 0.1 to 1 µM in assay [1] (Table 8) and 1 to 5 µM in assay [2] (Table 8).
In the case of `O=C(NO)c1ccc(CN2C(=O)c3ccccc3CCc3ccccc32)cc1` [N-hydroxy-4-((6-oxo-11,12-dihydrodibenzo[b,f]azocin-5(6H)-yl)methyl)benzamide], the half-inhibitory concentration (IC50) is 0.1 to 1 µM in assay [1] (Table 10) and 1 to 5 µM in assay [2] (Table 10).
Take `O=C(NO)c1ccc(N2C[C@@H]3C[C@H]2CN3c2cc(C(F)(F)F)ccn2)cc1` [N-hydroxy-4-((1S,4S)-5-(4-(trifluoromethyl)pyridin-2-yl)-2,5-diazabicyclo[2.2.1]heptan-2-yl)benzamide]: the figures for the IC50 in assay [1] (Table 9) and in assay [2] (Table 9) were 0.1 to 1 µM and 1 to 5 µM, respectively.
For the compound `O=C(NO)c1ccc(C2=Nc3ccccc3N(C3CC3)c3ccccc32)cc1` [(Z)-4-(5-cyclopropyl-5H-dibenzo[b,e][1,4]diazepin-11-yl)-N-hydroxybenzamide], the IC50 in assay [1] (Table 8) was in the range of 0.1 to 1 µM; in assay [2] (Table 8) it was 1 to 5 µM.
As to `COc1cccc(N2C[C@@H]3C[C@H]2CN3c2ncc(C(=O)NO)cn2)c1` [N-hydroxy-2-((1S,4S)-5-(3-methoxyphenyl)-2,5-diazabicyclo[2.2.1]heptan-2-yl)pyrimidine-5-carboxamide], the IC50 is less than 0.05 µM in assay [1] (Table 9) and less than 1 µM in assay [2] (Table 9).
Turning to `O=C(NO)c1ccc(C2=Nc3cccc(F)c3Oc3ccccc32)cc1` [(Z)-4-(6-fluorodibenzo[b,f][1,4]oxazepin-11-yl)-N-hydroxybenzamide], the IC50 in assay [1] (Table 8) lay in the range of 0.05 to 0.1 µM; in assay [2] (Table 8) it was 5 to 15 µM.
`O=C(NO)c1cnc(NC2c3ccccc3-c3ccccc32)nc1` [2-(9H-fluoren-9-ylamino)-N-hydroxypyrimidine-5-carboxamide]: the IC50 lay within 0.1 to 1 µM in assay [1] (Table 10) and 5 to 15 µM in assay [2] (Table 10).
As to `O=C(NO)c1cnc(N2CCn3c(nnc3-c3ccccc3)C2)nc1` [N-hydroxy-2-(3-phenyl-5,6-dihydro-[1,2,4]triazolo[4,3-a]pyrazin-7(8H)-yl)pyrimidine-5-carboxamide], the IC50 in assay [1] (Table 10) is less than 0.05 µM; in assay [2] (Table 10), 1 to 5 µM.
With `O=C(NO)c1cnc(N2C[C@@H]3C[C@H]2CN3c2cc(C(F)(F)F)nc3ccccc23)nc1` [N-hydroxy-2-((1S,4S)-5-(2-(trifluoromethyl)quinolin-4-yl)-2,5-diazabicyclo[2.2.1]heptan-2-yl)pyrimidine-5-carboxamide], the IC50 in assay [1] (Table 9) is less than 0.05 µM; in assay [2] (Table 9), less than 1 µM.
Turning to `O=C(NO)c1cnc(N2C[C@@H]3C[C@H]2CN3c2ccc3c(c2)OC(F)(F)O3)nc1` [2-((1S,4S)-5-(2,2-difluorobenzo[d][1,3]dioxol-5-yl)-2,5-diazabicyclo[2.2.1]heptan-2-yl)-N-hydroxypyrimidine-5-carboxamide], the values for the IC50 in assay [1] (Table 9) and in assay [2] (Table 9) were less than 0.05 µM and 1 to 5 µM, respectively.
On to `O=C(NO)c1cnc(N2C[C@@H]3C[C@H]2CN3c2cccc(C(F)(F)F)n2)nc1` [N-hydroxy-2-((1S,4S)-5-(6-(trifluoromethyl)pyridin-2-yl)-2,5-diazabicyclo[2.2.1]heptan-2-yl)pyrimidine-5-carboxamide], for which the IC50 in assay [1] (Table 9) is less than 0.05 µM; in assay [2] (Table 9) it was less than 1 µM.
